Data taken from patent US20260008793A1, “IONIZABLE CATIONIC LIPIDS INCORPORATING SILICON” (ALDEXCHEM KFT., priority 2022, published 2026).

Key:
[1] = tested on: HeLa cells; experiment: Transfection efficiency with Luciferase-mRNA, Nano-Glo assay (Method A); assay type: cell-based; details: 100 ng Luciferase (SecNLuc) mRNA, 24 h, luminescence
In short: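 Luminescence of secreted NanoLuc in culture medium, read ~3 min after Nano-Glo reagent, reports transfection. HeLa cells grown to ~80% confluence got 100/50/10 ng mRNA per well as LNPs for 24 h, with a parallel resazurin toxicity readout.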

[2] = Encapsulation efficiency, RiboGreen RNA assay (Method A); assay type: physicochemical; details: LNP formulated by Method A
Experimental: The synthesized lipids were tested in term of in vitro transfection efficacy and toxicity on HeLa cells. In order to perform the mentioned biological tests, appropriate LNPs had to be formulated from the synthesized lipids. The formulation technique was different in Method A and B. The particle size, PDI and zeta potential of resulting LNPs were determined by means of Dynamic Light Scattering technique (DLS). Prior to biological testing the encapsulation efficiency (EE) of the loaded LNPs was determined by using RiboGreen RNA assay. In case of Method A Luciferase-mRNA while in case of Method B GFP-mRNA was transfected into the cells. In parallel with the transfection experiments, toxicity of the investigated LNPs was determined, in case of Method A resazurin assay while in case of Method B MTT assay was used. In the case of some lipids, the apparent pKa in LNPs was determined by using TNS titration based on the method described: Angew Chem Int Ed Engl. 2012, 51 (34), 8529-8533, doi: 10.1002/anie.201203263).
• 1. Preparation of sample stock solutions: In the top row of the 96-well plate (Row A in the plate), add 297 μL of TE buffer pH 7.4 to a single well for each sample plus a single well for a PBS blank using a multichannel pipette. • 2. Add 3 μL of sample (at 0.5 mg/ml) to these wells for a final volume of 300 μL. Add 3 μL of PBS to the blank well. Pipette to mix. This is your stock solution for each sample. The final RNA concentration of these stock solutions should be approximately 4-7 μg/mL. • 3. mRNA-LNP sample setup: • a. Add 50 μL of TE buffer pH 7.5 to the two wells directly below each sample (Rows B and C in the plate). • b. Add 50 μL of sample stock solution from Row A into the wells in Rows B and C (this assay is run in duplicate. All liquid handling should be done using a multichannel pipette). • c. Add 50 μL of Triton buffer to the wells in Rows D and E (in the plate) below each sample. • d. Add 50 μL of sample stock solution from Row A into the wells in Rows D and E. • 4. RiboGreen RNA standard curve setup: Dilute the RNA standard to produce an RNA stock at a final concentration of 20 μg/mL in TE buffer pH 7.4. The final volume should be 150 μL. Set up a standard curve (in duplicate) as using the RNA stock (20 μg/mL siRNA), TE buffer pH 7.5, and Triton buffer according the Table 2 below.
• 5. Once samples and standard curve are plated, incubate the plate at 37° C. for 10 min to lyse mRNA-LNP in the presence of Triton X-100. • 6. Meanwhile, prepare RiboGreen Solution: Sum the total number of sample wells and standard curve wells. Add three to this number, and multiply the total by 100. This is the total volume, in μL, of RiboGreen Solution needed for this assay. In a 15 mL RNAse-free Falcon tube, dilute the RiboGreen Reagent 1:100 into TE buffer pH 7.5 to the total volume calculated. • 7. Addition of RiboGreen Solution and sample readings: Remove a 96-well plate from 37° C. incubator; let it cool to room temperature as RiboGreen binding is somewhat temperature dependent. Add 100 μL of RiboGreen Solution to each well. Pop any air bubbles with a needle. Read using fluorescent plate reader (excitation=480, emission=525). • 8. Sample analysis: Use the data generated by the RiboGreen standard curve to calculate the concentration of mRNA. Transfection Efficiency with Luciferase-mRNA (Method A)

CCCCCCCCCCSC(CCCC)C(=O)OCCCCCCN(CCCCO)CCCCCCOC(CCCCCCC)O[Si](C)(C)OCCCCCCCC (centres unmarked) [Example 169, 15-heptyl-7-(4-hydroxybutyl)-17,17-dimethyl-14,16,18-trioxa-7-aza-17-silahexacosyl 2-(decylthio)hexanoate]
Transfection* (Method A = 100 ng mRNA) [1]: 1379853
EE (%) [2]: 95%

CCCCCCCCCCSC(CCCC)C(=O)OCCCCCCN(CCCCO)CCCCCC(OCCCCCCCC)O[Si](C)(C)O[Si](C)(C)CCCCCCCC (centres unmarked) [Example 170, 6-((4-hydroxybutyl)(6-(octyloxy)-6-((1,1,3,3-tetramethyl-3-octyldisiloxaneyl)oxy)hexyl)amino)hexyl 2-(decylthio)hexanoate]
Transfection* (Method A = 100 ng mRNA) [1]: 711747
EE (%) [2]: 94%

CCCCCCCCCCSC(CCCC)C(=O)OCCCCCCN(CCCCO)CCCCCCOC(CCCCCCC)O[Si](C)(C)O[Si](C)(C)CCCCCCCC (centres unmarked) [Example 171, 15-heptyl-7-(4-hydroxybutyl)-17,17,19,19-tetramethyl-14,16,18-trioxa-7-aza-17,19-disilaheptacosyl 2-(decylthio)hexanoate]
Transfection* (Method A = 100 ng mRNA) [1]: 302489
EE (%) [2]: 95%

CCCCCCCCCCSC(CCCC)C(=O)OCCCCCCN(CCCCO)CCCCCC(OCCCCCCCC)O[Si](C)(C)O[Si](C)(C)OCCCCCCCC (centres unmarked) [Example 172, 6-((4-hydroxybutyl)(6-(octyloxy)-6-((1,1,3,3-tetramethyl-3-(octyloxy)disiloxaneyl)oxy)hexyl)amino)hexyl 2-(decylthio)hexanoate]
Transfection* (Method A = 100 ng mRNA) [1]: 301328
EE (%) [2]: 97%

CCCCCCCCCCSC(CCCC)C(=O)OCCCCCCN(CCCCO)CCCCCCOC(CCCCCCC)O[Si](C)(C)O[Si](C)(C)OCCCCCCCC (centres unmarked) [Example 173, 15-heptyl-7-(4-hydroxybutyl)-17,17,19,19-tetramethyl-14,16,18,20-tetraoxa-7-aza-17,19-disilaoctacosyl 2-(decylthio)hexanoate]
Transfection* (Method A = 100 ng mRNA) [1]: 182533
EE (%) [2]: 97%

CCCCCCCCCCSC(CCCC)C(=O)OCCCCCCN(CCCCO)CCCCCC(OCCCCCCCC)O[Si](C)(C)OCC(CCCCCC)CCCCCCCC (centres unmarked) [Example 174, 18-hexyl-7-(4-hydroxybutyl)-15,15-dimethyl-13-(octyloxy)-14,16-dioxa-7-aza-15-silahexacosyl 2-(decylthio)hexanoate]
Transfection* (Method A = 100 ng mRNA) [1]: 2292920
EE (%) [2]: 96%

CCCCCCCCCCSC(CCCC)C(=O)OCCCCCCN(CCCCO)CCCCCCOC(CCCCCCC)O[Si](C)(C)OCC(CCCCCC)CCCCCCCC (centres unmarked) [Example 175, 15-heptyl-20-hexyl-7-(4-hydroxybutyl)-17,17-dimethyl-14,16,18-trioxa-7-aza-17-silaoctacosyl 2-(decylthio)hexanoate]
Transfection* (Method A = 100 ng mRNA) [1]: 119238.5
EE (%) [2]: 97%

CCCCCCCCOC(CCCCCN(CCCCO)CCCCCCOC(=O)C(CCCCCCCC)SCCCCC)O[Si](C)(C)CCCCCCCC (centres unmarked) [Example 177, 6-((6-((dimethyl(octyl)silyl)oxy)-6-(octyloxy)hexyl)(4-hydroxybutyl)amino)hexyl 2-(pentylthio)decanoate]
Transfection* (Method A = 100 ng mRNA) [1]: 691264
EE (%) [2]: 98%

CCCCCCCCC(SCCCCC)C(=O)OCCCCCCN(CCCCO)CCCCCCOC(CCCCCCC)O[Si](C)(C)CCCCCCCC (centres unmarked) [Example 178, 15-heptyl-7-(4-hydroxybutyl)-17,17-dimethyl-14,16-dioxa-7-aza-17-silapentacosyl 2-(pentylthio)decanoate]
Transfection* (Method A = 100 ng mRNA) [1]: 557798
EE (%) [2]: 96%

CCCCCCCCOC(CCCCCN(CCCCO)CCCCCCOC(=O)C(CCCCCCCC)SCCCCC)O[Si](C)(C)OCCCCCCCC (centres unmarked) [Example 179, 7-(4-hydroxybutyl)-15,15-dimethyl-13-(octyloxy)-14,16-dioxa-7-aza-15-silatetracosyl 2-(pentylthio)decanoate]
Transfection* (Method A = 100 ng mRNA) [1]: 41726
EE (%) [2]: 94%

CCCCCCCCOC(CCCCCN(CCCCO)CCCCCCOC(=O)C(CCCCCCCC)SCCCCC)O[Si](C)(C)O[Si](C)(C)CCCCCCCC (centres unmarked) [Example 181, 6-((4-hydroxybutyl)(6-(octyloxy)-6-((1,1,3,3-tetramethyl-3-octyldisiloxaneyl)oxy)hexyl)amino)hexyl 2-(pentylthio)decanoate]
Transfection* (Method A = 100 ng mRNA) [1]: 14238
EE (%) [2]: 97%

CCCCCCCCC(SCCCCC)C(=O)OCCCCCCN(CCCCO)CCCCCCOC(CCCCCCC)O[Si](C)(C)O[Si](C)(C)CCCCCCCC (centres unmarked) [Example 182, 15-heptyl-7-(4-hydroxybutyl)-17,17,19,19-tetramethyl-14,16,18-trioxa-7-aza-17,19-disilaheptacosyl 2-(pentylthio)decanoate]
Transfection* (Method A = 100 ng mRNA) [1]: 227368
EE (%) [2]: 96%

CCCCCCCCOC(CCCCCN(CCCCO)CCCCCCOC(=O)C(CCCCCCCC)SCCCCC)O[Si](C)(C)O[Si](C)(C)OCCCCCCCC (centres unmarked) [Example 183, 6-((4-hydroxybutyl)(6-(octyloxy)-6-((1,1,3,3-tetramethyl-3-(octyloxy)disiloxaneyl)oxy)hexyl)amino)hexyl 2-(pentylthio)decanoate]
Transfection* (Method A = 100 ng mRNA) [1]: 968235
EE (%) [2]: 97%

CCCCCCCCO[Si](C)(C)O[Si](C)(C)OC(CCCCCCC)OCCCCCCN(CCCCO)CCCCCCOC(=O)C(CCCCCCCC)SCCCCC (centres unmarked) [Example 184, 15-heptyl-7-(4-hydroxybutyl)-17,17,19,19-tetramethyl-14,16,18,20-tetraoxa-7-aza-17,19-disilaoctacosyl 2-(pentylthio)decanoate]
Transfection* (Method A = 100 ng mRNA) [1]: 883795
EE (%) [2]: 92%

CCCCCCCCOC(CCCCCN(CCCCO)CCCCCCOC(=O)C(CCCCCCCC)SCCCCC)O[Si](C)(C)OCC(CCCCCC)CCCCCCCC (centres unmarked) [Example 185, 18-hexyl-7-(4-hydroxybutyl)-15,15-dimethyl-13-(octyloxy)-14,16-dioxa-7-aza-15-silahexacosyl 2-(pentylthio)decanoate]
Transfection* (Method A = 100 ng mRNA) [1]: 1019830
EE (%) [2]: 97%

CCCCCCCCOC(CCCCCCC)O[Si](C)(C)CCCCCCN(CCCCO)CCCCCCOC(=O)C(CCCCCCCC)SCCCCC (centres unmarked) [Example 187, 16-heptyl-7-(4-hydroxybutyl)-14,14-dimethyl-15,17-dioxa-7-aza-14-silapentacosyl 2-(pentylthio)decanoate]
Transfection* (Method A = 100 ng mRNA) [1]: 838984
EE (%) [2]: 92%

CCCCCCCCOC(CCCCCN(CCO)CCCCCCCC(=O)OC(CCCCCCCC)CCCCCCCC)O[Si](C)(C)CCCCCCCC (centres unmarked) [Example 189, heptadecan-9-yl 8-((6-((dimethyl(octyl)silyl)oxy)-6-(octyloxy)hexyl)(2-hydroxyethyl)amino)octanoate]
Transfection* (Method A = 100 ng mRNA) [1]: 45731
EE (%) [2]: 94%

CCCCCCCCOC(CCCCCN(CCO)CCCCCCCC(=O)OC(CCCCCCCC)CCCCCCCC)O[Si](C)(C)OCCCCCCCC (centres unmarked) [Example 190, heptadecan-9-yl 18-(2-hydroxyethyl)-10,10-dimethyl-12-(octyloxy)-9,11-dioxa-18-aza-10-silahexacosan-26-oate]
Transfection* (Method A = 100 ng mRNA) [1]: 15121
EE (%) [2]: 93%

CCCCCCCCOC(CCCCCN(CCO)CCCCCCCC(=O)OC(CCCCCCCC)CCCCCCCC)O[Si](C)(C)O[Si](C)(C)CCCCCCCC (centres unmarked) [Example 191, heptadecan-9-yl 8-((2-hydroxyethyl)(6-(octyloxy)-6-((1,1,3,3-tetramethyl-3-octyldisiloxaneyl)oxy)hexyl)amino)octanoate]
Transfection* (Method A = 100 ng mRNA) [1]: 34867
EE (%) [2]: 96%
